Experimental data: US20240299359A1, “PHARMACEUTICAL COMPOSITION FOR ANIMALS CONTAINING 5-HYDROXY-METHYLIMIDAZOLIDINE-2,4-DIONE COMPOUND AS ACTIVE INGREDIENT” (KYONGBO PHARM. CO., LTD., priority 2021, published 2024)
Several values for one entry are separate records, joined by “and”; a condition that tells them apart may be missing. Equal values may be shown once.

Test system: beagles
Assay: 13-week repeated oral toxicity: hematological test
Format: in vivo, beagle
Procedure: Fasting was conducted the day before administration (blood test date, pre), the 4th week (day 29) after administration, the 8th week (day 57) after administration, and the 13th week (day 92) after administration, and when the remaining feed was present in the feed container 3 hours after feeding on the day of fasting, it was removed.
All subjects were fasted for 16 hours and measurements were then performed pre (before administration), 4 weeks (day 29) after administration, 8 weeks (day 57) after administration, and 13 weeks (day 92) after administration. Within 3 hours after 2 to 3 ml of blood collected from the jugular vein of each subject was injected into a CBC bottle containing EDTA, RBC, HGB, HCT, RBC indices (MCV, MCH, MCHC), and platelet count and WBC differential count were measured using an automatic hematometer.

[1] = G2 200 mg/kg group, female (F4-F6, Mean), before administration (day 0)
[2] = G2 200 mg/kg group, female (F4-F6, Mean), before administration (day 0), mean
[3] = G2 200 mg/kg group, male (M4-M6, Mean), before administration (day 0)
[4] = G2 200 mg/kg group, male (M4-M6, Mean), before administration (day 0), mean
[5] = G2 200 mg/kg, repeated administration for 13 weeks, female, group mean
[6] = G2 200 mg/kg, repeated administration for 13 weeks, female, individual animals
[7] = G2 200 mg/kg, repeated administration for 13 weeks, male, group mean
[8] = G2 200 mg/kg, repeated administration for 13 weeks, male, individual animals
[9] = G3 500 mg/kg group, female (F7-F9, Mean), before administration (day 0)
[10] = G3 500 mg/kg group, female (F7-F9, Mean), before administration (day 0), mean
[11] = G3 500 mg/kg group, male (M7-M9, Mean), before administration (day 0)
[12] = G3 500 mg/kg group, male (M7-M9, Mean), before administration (day 0), mean
[13] = G3 500 mg/kg, repeated administration for 13 weeks, female, group mean

For `CN1C(=O)NC(=O)C1O` (stereo not drawn) [KBP-001, 5-hydroxy-1-methylimidazolidine-2,4-dione], the HCT [1] was 47.0% and 49.6% and 51.3%, the HGB [1] was 15. g/dl and 16.7 g/dl and 17.5 g/dl and the MCH [1] was 22.5 pg and 22.6 pg and 22.7 pg. The MCHC [1] was 33.8 g/dL and 33.6 g/dL and 34.1 g/dL, the MCV [1] was 66.6 fL and 67.3 fL and 66.7 fL and the Retic [1] was 0.77% and 1.34% and 1.01%. The “WBC Differential Counting Baso” value [1] was 1.0% (2×) and 0.8%, the “WBC Differential Counting Eos” value [1] was 7.3% and 5.5% and 4.5% and the “WBC Differential Counting Lymph” value [1] was 30.0% and 20.55% and 30.2%. The “WBC Differential Counting Mono” value [1] was 5.7% and 6.2% and 6.1%, the “WBC Differential Counting Neut” value [1] was 55.5% and 66.3% and 57.6% and the HCT [2] was 49.30%. The HGB [2] was 16.70 g/dL, the MCH [2] was 22.6 pg and the MCHC [2] was 33.83 g/dL. For the same compound, the MCV [2] was 66.9 fL, the Retic [2] was 1.04% and the “WBC Differential Counting Baso” value [2] was 0.93%. The “WBC Differential Counting Eos” value [2] was 5.77%, the “WBC Differential Counting Lymph” value [2] was 27.00% and the “WBC Differential Counting Mono” value [2] was 6.00%. For the same compound, the “WBC Differential Counting Neut” value [2] was 59.80%, the HCT [3] was 48.1% and 48.8% and 45.2% and the HGB [3] was 16.0 g/dL and 15.2 g/dL. For the same compound, the MCH [3] was 22.2 pg and 21.7 pg and 21 pg, the MCHC [3] was 33.3 g/dL and 32.9 g/dL and 33.7 g/dL and the MCV [3] was 66.8 fL and 66.1 fL and 62.3 fL. For the same compound, the Retic [3] was 1.21% and 1.16% and 1.11%, the “WBC Differential Counting Baso” value [3] was 1.0% and 0.9% and 0.8% and the “WBC Differential Counting Eos” value [3] was 3.5% and 4.7% and 6.4%. The “WBC Differential Counting Lymph” value [3] was 40.5% and 29.4% and 23.2%, the “WBC Differential Counting Mono” value [3] was 4.7% and 8.3% and 6.0% and the “WBC Differential Counting Neut” value [3] was 49.6% and 56.2% and 63.3%. The HCT [4] was 47.37%, the HGB [4] was 15.73 g/dL and the MCH [4] was 21.6 pg. The MCHC [4] was 33.30 g/dL, the MCV [4] was 65.1 fL and the “WBC Differential Counting Baso” value [4] was 0.90%. The “WBC Differential Counting Eos” value [4] was 4.87%, the “WBC Differential Counting Lymph” value [4] was 31.03% and the “WBC Differential Counting Mono” value [4] was 6.33%. For the same compound, the “WBC Differential Counting Neut” value [4] was 56.37%, the HGB [5] was 15.77 g/dL and the MCH [5] was 22.9 pg. For the same compound, the MCHC [5] was 33.80 g/dL, the MCV [5] was 67.9 fL and the Retic [5] was 0.41%. The “WBC Differential Counting(%) Baso” value [5] was 0.77%, the “WBC Differential Counting(%) Eos” value [5] was 8.10% and the “WBC Differential Counting(%) Lymph” value [5] was 28.50%. The “WBC Differential Counting(%) Mono” value [5] was 5.30%, the “WBC Differential Counting(%) Neut” value [5] was 56.90% and the HCT [6] was 45.3% and 47.7% and 46.9%. The HGB [6] was 15.3 g/dl and 16.0 g/dl (2×), the MCHC [6] was 33.7 g/dL and 33.6 g/dL and 34.1 g/dL and the MCV [6] was 67.2 fL and 68.8 fL and 67.5 fL. The Retic [6] was 0.25% and 0.42% and 0.55%, the “WBC Differential Counting(%) Baso” value [6] was 0.8% (2×) and 0.7% and the “WBC Differential Counting(%) Eos” value [6] was 8.1% and 7.4% and 8.8%. For the same compound, the “WBC Differential Counting(%) Lymph” value [6] was 25.1% and 33.4% and 27.0%, the “WBC Differential Counting(%) Mono” value [6] was 5.3% and 5.0% and 5.6% and the “WBC Differential Counting(%) Neut” value [6] was 60.2% and 53.1% and 57.4%. It also gave an HCT [7] of 46.43%, an HGB [7] of 15.53 g/dL and an MCH [7] of 22.2 pg. It also gave an MCHC [7] of 33.40 g/dL, an MCV [7] of 66.4 fL and a Retic [7] of 0.50%. For the same compound, the “WBC Differential Counting(%) Baso” value [7] was 0.67%, the “WBC Differential Counting(%) Eos” value [7] was 6.23% and the “WBC Differential Counting(%) Lymph” value [7] was 31.10%. The “WBC Differential Counting(%) Mono” value [7] was 6.47%, the “WBC Differential Counting(%) Neut” value [7] was 55.10% and the HCT [8] was 43.8% and 47.0% and 48.5%. For the same compound, the HGB [8] was 14.4 g/dL and 15.8 g/dL and 16.4 g/dL, the MCH [8] was 22 pg and 22.8 pg and 21.8 pg and the MCHC [8] was 32.9 g/dL and 33.5 g/dL and 33.8 g/dL. For the same compound, the MCV [8] was 66.8 fL and 67.9 fL and 64.5 fL, the Retic [8] was 0.45% and 0.59% and 0.46% and the “WBC Differential Counting(%) Baso” value [8] was 0.8% and 0.7% and 0.5%. The “WBC Differential Counting(%) Eos” value [8] was 6.8% and 5.3% and 6.6%, the “WBC Differential Counting(%) Lymph” value [8] was 35.9% and 32.7% and 24.7% and the “WBC Differential Counting(%) Mono” value [8] was 6.1% and 7.5% and 5.8%. For the same compound, the “WBC Differential Counting(%) Neut” value [8] was 50.0% and 53.4% and 61.9%, the HCT [9] was 44.4% and 50.3% and 47.5% and the HGB [9] was 14.6 g/dL and 16.9 g/dL and 15.9 g/dL. The MCH [9] was 22.5 pg and 22.2 pg and 22.1 pg, the MCHC [9] was 33.0 g/dL and 33.5 g/dL and the MCV [9] was 68.3 fL and 66.4 fL and 66.2 fL. The Retic [9] was 0.61% and 0.91% and 1.01%, the “WBC Differential Counting Baso” value [9] was 0.6% and 1.5% and 0.4% and the “WBC Differential Counting Eos” value [9] was 3.4% and 1.1% and 3.7%. For the same compound, the “WBC Differential Counting Lymph” value [9] was 42.0% and 44.2% and 28.3%, the “WBC Differential Counting Mono” value [9] was 4.9% and 3.7% and 5.9% and the HCT [10] was 47.40%. For the same compound, the HGB [10] was 15.80 g/dL, the MCH [10] was 22.3 pg and the MCHC [10] was 33.33 g/dL. For the same compound, the MCV [10] was 67 fL, the Retic [10] was 0.84% and the “WBC Differential Counting Baso” value [10] was 0.83%. For the same compound, the “WBC Differential Counting Eos” value [10] was 2.73%, the “WBC Differential Counting Lymph” value [10] was 38.17% and the “WBC Differential Counting Mono” value [10] was 4.83%. For the same compound, the HCT [11] was 44.8% and 43.0% and 52.1%, the HGB [11] was 15.0 g/dL and 13.8 g/dL and 17.4 g/dL and the MCH [11] was 23 pg and 22.3 pg and 22.9 pg. For the same compound, the MCHC [11] was 33.4 g/dL and 32.1 g/dL, the MCV [11] was 68 fL and 69.4 fL and 68.7 fL and the Retic [11] was 0.60% and 0.46% and 0.84%. The “WBC Differential Counting Baso” value [11] was 0.4% and 0.8% and 1.1%, the “WBC Differential Counting Eos” value [11] was 2.6% and 8.5% and 2.9% and the “WBC Differential Counting Lymph” value [11] was 36.0% and 33.1% and 36.7%. The “WBC Differential Counting Mono” value [11] was 5.9% and 7.8% and 5.8%, the “WBC Differential Counting Neut” value [11] was 54.8% and 49.4% and 53.0% and the HCT [12] was 46.63%. For the same compound, the HGB [12] was 15.40 g/dL, the MCH [12] was 22.7 pg and the MCHC [12] was 32.97 g/dL. For the same compound, the MCV [12] was 69 fL, the Retic [12] was 0.63% and the “WBC Differential Counting Baso” value [12] was 0.77%. For the same compound, the “WBC Differential Counting Eos” value [12] was 4.67%, the “WBC Differential Counting Lymph” value [12] was 35.27% and the “WBC Differential Counting Mono” value [12] was 6.50%. For the same compound, the “WBC Differential Counting Neut” value [12] was 52.40%, the HCT [13] was 48.00% and the HGB [13] was 16.00 g/dL.
